From patent US20250082781A1, “METHODS OF LOWERING BLOOD GLUCOSE AND TREATING TYPE 2 DIABETES BY ACTIVATION OF PDE4D3” (Salk Institute for Biological Studies, priority 2021, published 2025)

Legend:
serum FFA levels = test: Serum FFA levels in DIO mice; type: in vivo, mouse; details: FGF1 0.5 mg/kg s.c.
Procedure: Mice were kept in 12 h light/dark cycle in a temperature-controlled environment. Mice had free access to food and water unless noted otherwise. C57/B6 mice background was used unless noted otherwise. C57BL/6J and ob/ob (000632-B6. Cg-Lepob/J) male mice were obtained from Jackson Laboratory. PDE4D knock-out mice (034588-UCD) were obtained from MMRRC. For diet-induced obesity (DIO) studies, mice were fed a high fat diet (HFD) (60% fat, F3282; Bio-Serv) for minimum of 12 weeks to induce insulin resistance when diet-induced obese model is used. Insulin levels and blood glucose levels were monitored to confirm insulin resistance. To generate adipose-specific FGFR1 deletion, adiponectin-cre mice (B6; FVB-Tg (Adipoq-cre)1Evdr/J; Stock: 010803) were crossed to Fgfr1 flox/flox (B6.129S4-Fgfr1tm5.1Sor/J; Stock: 00767) mice. For AAV mediated expression of target proteins in adipose tissue, 5×10E+11 genomic copies of AAV were injected via tail vein or retro-orbital route.
Recombinant FGF1 (rFGF1) was dissolved in phosphate-buffered saline (PBS) at a concentration of 0.2 mg/ml and was injected subcutaneously at a 0.5 mg kg^−1 dose. Blood glucose was monitored at indicated time points after injection. For initial measurements (2-4 h) food was removed after injection to exclude any indirect effects stemming from anorexigenic effects of FGF1. PDE4 inhibitor roflumilast stock in DMSO was diluted at 1 mg/ml in 30% captisol, pH 10 and delivered to mice thorough oral gavage at 5 mg kg^−1 dose. PDE3 inhibitor cilostamide stock in DMSO was diluted at 2 mg/ml in 30% captisol and delivered through intraperitoneal injection at 10 mg kg^−1 dose.

[1] = test system: mouse SVF-derived adipocytes; test: In vitro lipolysis assay (FFA release), mouse SVF-derived adipocytes; type: cell-based
Procedure: Isolation of adipose stromal fraction (SVF) was performed as published previously with slight modifications (Bapat et al., 2015). Inguinal adipose (iWAT) tissues were used for isolation of SVF due their ability to differentiate to mature adipocytes. Briefly, adipose tissues were dissected, washed in cold PBS and cut into small pieces in digestion buffer (100 mM HEPES, 120 mM NaCl, 50 mM KCl, 1 mM CaCl2), 1.5% fatty acids free BSA, 1 mg/ml collagenase I). Samples were dissociated in 37° C. water bath with shaking for 30-60 min with occasional monitoring to prevent over digestion. Tissue debris were filtered by 100 μm cell strainer and SVF was collected by centrifugation at 500 g for 5 minutes. Cell pellet was washed once by PBS and filtered with 40 μm cell strainer. Red blood cells were lysed with Red blood cell lysis buffer (BioLegend) according to manufacturer's instructions. The remaining cells were re-suspended and cultured in DMEM/F12 with 20% FBS (GemCell, 100-500) at 37° C., 5% CO2.
Differentiation of pre-adipocytes were based on previously published methods (Bunnell et al., 2008). Briefly, 3T3-L1 pre-adipocytes were grown to full confluence in DMEM, 10% FBS (GemCell, 100-500), 10 mM HEPES and antibiotic-antimycotic (full growth media). 2 days later, differentiation was induced by replacing the media with 1 μM dexamethasone, 1 μM rosiglitazone, 500 μM IBMX and 5 μg/ml insulin in full growth media 2 days later after reaching full confluence. Two days later media was replaced by differentiation induction media with 1 μM rosiglitazone and 5 μg/ml insulin for 4 days with media change after 2 days. Cells were kept in maintenance medium (full growth media with 5 μg/ml insulin) for 4 more days for full differentiation. […]
For in vitro lipolysis assay, cells were washed with PBS and media were changed to full growth media 1 day before experiment. […] FFAs were measured in the media using a commercial kit (Wako-NEFAHR2) and normalized to protein concentration. […] FFAs were measured and normalized by the explant weights.

[2] = test system: hepatic glucose production; test: Pyruvate tolerance and glycerol tolerance tests; type: in vivo, mouse
Procedure: Pyruvate tolerance and glycerol tolerance tests were performed in ob ob and DIO mice after overnight fasting at 1.5 g kg^−1 dose using sodium pyruvate (0.2 g/ml) or 20% glycerol solution in PBS. Insulin tolerance test and glucose tolerance test were performed in ob ob mice after 8 h fasting. 2 U kg^−1 insulin (Humulin R) and 0.5 g kg^−1 glucose were used respectively. Blood glucose from tail bleeding was monitored by a OneTouch glucometer.

cAMP = cAMP levels in 3T3-L1 adipocytes (ELISA, biosensor, CRE-Luc reporter); type: cell-based
Procedure: 3T3-L1 cells were transduced with viral particles ([…]) in 24 well plates. Media was replaced after overnight incubation. 3-4 days after AAV infection, cells were treated as described for lipolysis assay. For cAMP analysis by biosensors, Downward Green cADDis cAMP Sensor (D0200G) and control mNeon Green (F0500G) produced in BacMam system was purchased from Montana Molecular. Brightfield and fluorescence images were taken every 10-20 min in I IncuCyte® Live-cell analysis system (Sartorius) and images were analyzed by IncuCyte® Analysis Software. High-resolution live cell imaging was performed with LSM 880 Airyscan microscope at 40× objective.

[3] = overnight fasted ob/ob mice, 2 h after FGF1 0.5 mg/kg

Substance: FGF1: Recombinant fibroblast growth factor 1 protein, dissolved in PBS, injected subcutaneously
- serum FFA levels (serum FFA levels; overnight fasted DIO adR1KO mice): failed to affect adR1KO mice
- reduction of serum FFA levels (serum FFA levels; overnight fasted DIO adR1WT mice, 30 min): ~30%
- anti-lipolytic activity of FGF1 with selective inhibitors of PDE4 ([1]; FGF1 100 ng/ml with roflumilast 2 μM): blocked by selective inhibitors of PDE4
- basal and isoproterenol-induced lipolysis ([1]; FGF1 100 ng/ml, 10 min before ISO 1 nM): acutely suppressed basal and isoproterenol-induced lipolysis
- isoproterenol-induced lipolysis in adipocytes derived from PDE4D KO SVF ([1]; FGF1 100 ng/ml, ISO 1 nM): insensitive to FGF1 treatment
- pyruvate and glycerol tolerance tests ([2]; DIO mice, 2 h after FGF1 0.5 mg/kg): replicated in DIO mice
- suppression of pyruvate utilization ([2]; adR1WT vs adR1KO DIO mice): dependent on adipocyte FGFR1 expression
- glycerol tolerance test [2, 3]: no differences
- pyruvate tolerance test (glucose synthesis from pyruvate) [2, 3]: markedly reduced ability to synthesize glucose from pyruvate
- isoproterenol-induced increases in cAMP and cAMP/PKA signaling (cAMP; FGF1 pretreatment, ISO 100 nM): attenuated isoproterenol-induced increases in cAMP
- FGF1-induced attenuation of isoproterenol-driven increase in cAMP with PDE4 inhibitor (cAMP; live 3T3-L1 cells, cAMP biosensor, roflumilast 2 μM): lost
